Calls of active or inactive are those of the source. The calls are words filed in the database; no cut-off is given here.
Tests used:
Escherichia coli [1] = experiment: Induction of membrane potential depolarization in Escherichia coli ATCC25922 measured after 20 mins by diSC35 dye based spectroscopy; type: functional, organism-based
Staphylococcus aureus [2] = experiment: Antibacterial activity against Staphylococcus aureus ATCC25923 infected in Kunming mouse model assessed as bacterial growth reduction at 5 to 25 mg/kg, ip; type: functional, organism-based; conditions: dose 5-25 mg/kg
Staphylococcus aureus [3] = experiment: Disruption of inner membrane in Staphylococcus aureus ATCC25923 by PI staining based analysis; type: functional, organism-based; conditions: time 12.0 min, TDE = time-dependent effect
Escherichia coli [4] = experiment: Disruption of outer membrane in Escherichia coli ATCC25922 measured after 10 mins by NPN dye based analysis; type: functional, organism-based; conditions: dose 4-16 µg/ml
Acinetobacter baumannii [5] = experiment: Antibacterial activity against Acinetobacter baumannii ATCC19606 incubated for 18 to 24 hrs; type: functional; conditions: time 18-24 hrs
Enterococcus faecium [6] = experiment: Antibacterial activity against vancomycin-resistant Enterococcus faecium ATCC51559 assessed as bacterial growth inhibition incubated for 20 hrs by CLSI based broth microdilution method; type: functional
Klebsiella pneumoniae = experiment: Antibacterial activity against Klebsiella pneumoniae ATCC BAA-1902 assessed as bacterial growth inhibition incubated for 20 hrs by CLSI based broth microdilution method; type: functional
Enterococcus faecalis [7] = experiment: Antibacterial activity against vancomycin-susceptible Enterococcus faecalis ATCC29212 assessed as bacterial growth inhibition incubated for 20 hrs by CLSI based broth microdilution method; type: functional
Bacillus subtilis [8] = experiment: Selectivity ratio of MBC for penicillin-susceptible Bacillus subtilis ATCC9372 to MIC for penicillin-susceptible Bacillus subtilis ATCC9372; type: functional
Staphylococcus aureus [9] = experiment: Antibacterial activity against erythromycin-susceptible Staphylococcus aureus ATCC25923 assessed as bacterial growth inhibition incubated for 20 hrs by CLSI based broth microdilution method; type: functional
[10] = Hemolytic activity in mouse erythrocytes at 16 ug/ml incubated for 1 hr by absorbance based assay; type: toxicity, cell-based, Erythrocyte; conditions: at 16 µg/mL, read-out: Activity
Bacillus subtilis [11] = experiment: Induction of morphological change in Bacillus subtilis ATCC9372 assessed as increase in cell length at 0.5 times MIC by phase contrast microscopy; type: functional, organism-based
Staphylococcus aureus [12] = experiment: Inhibition of bacterial proliferation of Staphylococcus aureus ATCC25923 at 0.125 ug/ml measured for 24 hrs by time-kill assay; type: functional, organism-based; conditions: dose 0.125 µg/ml
Staphylococcus aureus [13] = experiment: Inhibition of biofilm formation of Staphylococcus aureus ATCC25923 incubated for 20 hrs by crystal violet staining based analysis; type: functional, organism-based
Staphylococcus aureus [14] = experiment: Antibacterial activity against penicillin-resistant Staphylococcus aureus ATCC31007 assessed as bacterial growth inhibition incubated for 20 hrs by CLSI based broth microdilution method; type: functional
Streptococcus pyogenes [15] = experiment: Antibacterial activity against erythromycin-resistant Streptococcus pyogenes 2 clinical isolate assessed as bacterial growth inhibition incubated for 20 hrs by CLSI based broth microdilution method; type: functional
Staphylococcus aureus [16] = experiment: Selectivity ratio of MBC for erythromycin-susceptible Staphylococcus aureus ATCC25923 to MIC for erythromycin-susceptible Staphylococcus aureus ATCC25923; type: functional
Staphylococcus aureus [17] = experiment: Disruption of inner membrane in Staphylococcus aureus ATCC25923 at 0.5 ug/ml measured after 12 mins by PI staining based analysis; type: functional, organism-based; conditions: dose 0.5 µg/ml
Staphylococcus aureus [18] = experiment: Induction of membrane potential depolarization in Staphylococcus aureus ATCC25923 measured after 20 mins by diSC35 dye based spectroscopy; type: functional, organism-based
Acinetobacter baumannii [19] = experiment: Antibacterial activity against Acinetobacter baumannii ATCC19606 assessed as bacterial growth inhibition incubated for 20 hrs by CLSI based broth microdilution method; type: functional
Enterococcus faecalis [20] = experiment: Antibacterial activity against vancomycin-resistant Enterococcus faecalis ATCC51299 assessed as bacterial growth inhibition incubated for 20 hrs by CLSI based broth microdilution method; type: functional
Enterococcus faecium [21] = experiment: Antibacterial activity against vancomycin-susceptible Enterococcus faecium ATCC19434 assessed as bacterial growth inhibition incubated for 20 hrs by CLSI based broth microdilution method; type: functional
Staphylococcus aureus [22] = experiment: Inhibition of biofilm formation of Staphylococcus aureus ATCC25923 at 0.5 ug/ml incubated for 20 hrs by crystal violet staining based analysis relative to control; type: functional
Staphylococcus aureus [23] = experiment: Induction of morphological change in Staphylococcus aureus ATCC25923 assessed as leakage of cell contents at 16 times MIC incubated for 2 hrs by TEM analysis; type: functional, organism-based
Acinetobacter baumannii [24] = experiment: Selectivity ratio of MBC for Acinetobacter baumannii ATCC19606 to MIC for Acinetobacter baumannii ATCC19606; type: functional
[25] = target: T1, Cell division protein FtsZ (Bacillus subtilis) (UniProt A5Z1V5); experiment: Induction of FtsZ polymerization in Bacillus subtilis at 2.5 to 10 ug/ml preincubated with compound followed by GTP addition by absorbance based assay; conditions: dose 2.5-10 µg/ml, time 40.0 min, TDE = time-dependent effect
T1 sequence (whole entry): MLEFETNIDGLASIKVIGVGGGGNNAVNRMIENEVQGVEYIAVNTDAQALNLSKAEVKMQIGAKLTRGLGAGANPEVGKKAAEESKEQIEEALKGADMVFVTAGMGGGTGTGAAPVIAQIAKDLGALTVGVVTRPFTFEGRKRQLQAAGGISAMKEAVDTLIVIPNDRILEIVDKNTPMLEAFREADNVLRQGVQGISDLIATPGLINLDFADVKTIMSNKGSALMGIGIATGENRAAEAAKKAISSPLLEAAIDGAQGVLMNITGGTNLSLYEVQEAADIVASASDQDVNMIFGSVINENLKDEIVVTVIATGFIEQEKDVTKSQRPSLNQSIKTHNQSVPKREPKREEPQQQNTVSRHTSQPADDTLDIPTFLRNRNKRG

Bacillus pumilus = experiment: Antibacterial activity against penicillin-susceptible Bacillus pumilus CMCC63202 assessed as bacterial growth inhibition incubated for 20 hrs by CLSI based broth microdilution method; type: functional
Staphylococcus aureus [26] = experiment: Induction of resistance development in Staphylococcus aureus ATCC25923 assessed as fold increase in MIC at 0.5 times MIC measured after 32 days by multi-passage resistance assay relative to control; type: functional; conditions: time 32.0 day
Staphylococcus aureus [27] = experiment: Antibacterial activity against Staphylococcus aureus clinical isolate incubated for 18 to 24 hrs; type: functional; conditions: time 18-24 hrs
Staphylococcus aureus [28] = experiment: Antibacterial activity against methicillin-resistant Staphylococcus aureus ATCC43300 assessed as bacterial growth inhibition incubated for 20 hrs by CLSI based broth microdilution method; type: functional
Streptococcus pyogenes [29] = experiment: Antibacterial activity against erythromycin-susceptible Streptococcus pyogenes 1 assessed as bacterial growth inhibition incubated for 20 hrs by CLSI based broth microdilution method; type: functional
Escherichia coli [30] = experiment: Antibacterial activity against wild-type Escherichia coli BW25113 assessed as bacterial growth inhibition incubated for 20 hrs by CLSI based broth microdilution method; type: functional
Escherichia coli [31] = experiment: Disruption of inner membrane in Escherichia coli ATCC25922 measured after 12 mins by PI staining based analysis; type: functional, organism-based
Staphylococcus aureus [32] = experiment: Antibacterial activity against erythromycin-susceptible Staphylococcus aureus ATCC25923 incubated for 18 to 24 hrs; type: functional; conditions: time 18-24 hrs
Staphylococcus aureus [33] = experiment: Bactericidal activity against Staphylococcus aureus ATCC25923 measured for 24 hrs by time-kill assay; type: functional, organism-based; conditions: dose 0.125-0.5 µg/ml
Escherichia coli [34] = experiment: Disruption of outer membrane in Escherichia coli ATCC25922 at 16 ug/ml measured after 10 mins by NPN dye based analysis; type: functional, organism-based; conditions: dose 16.0 µg/ml

Structure (SMILES): C[n+]1cc(-c2ccccc2)c(/C=C/c2ccc(C(C)(C)C)cc2)cc1-c1ccc(C(C)(C)C)cc1.[I-]
- Activity (Escherichia coli [1]): Dose-Dependent Effect
- Activity (Staphylococcus aureus [2]): Active
- Activity (Staphylococcus aureus [3]): Tde
- Activity (Escherichia coli [4]): Dose-Dependent Effect
- MBC (Acinetobacter baumannii [5]): 1 mg/L
- MIC (Enterococcus faecium [6]): 0.5 mg/L
- MIC (Klebsiella pneumoniae): 4 mg/L
- MIC (Enterococcus faecalis [7]): 0.25 mg/L
- Ratio (Bacillus subtilis [8]): 2
- MIC (Staphylococcus aureus [9]): 0.062 mg/L
- hemolysis at 1 h, 16 ug/ml [10]: 6.37%
- Activity (Bacillus subtilis [11]): Active
- inhibition (Staphylococcus aureus [12]): inactive
- inhibition (Staphylococcus aureus [13]): Dose-Dependent Effect
- MIC (Staphylococcus aureus [14]): 1 mg/L
- MIC (Streptococcus pyogenes [15]): 2 mg/L
- Ratio (Staphylococcus aureus [16]): 4
- Activity (Staphylococcus aureus [17]): Active
- Activity (Staphylococcus aureus [18]): Dose-Dependent Effect
- MIC (Acinetobacter baumannii [19]): 0.5 mg/L
- MIC (Enterococcus faecalis [20]): 0.5 mg/L
- MIC (Enterococcus faecium [21]): 0.125 mg/L
- inhibition at 0.5 µg/mL (Staphylococcus aureus [22]): 6.06%
- Activity (Staphylococcus aureus [23]): Active
- Ratio (Acinetobacter baumannii [24]): 2
- Activity [25]: Tde
- MIC (Bacillus pumilus): 0.062 mg/L
- fold change (FC) (Staphylococcus aureus [26]): 2
- MBC (Staphylococcus aureus [27]): 0.125 mg/L
- MIC (Staphylococcus aureus [28]): 0.125 mg/L
- MIC (Streptococcus pyogenes [29]): 2 mg/L
- MIC (Escherichia coli [30]): 2 mg/L
- Activity (Escherichia coli [31]): Dose-Dependent Effect
- MBC (Staphylococcus aureus [32]): 0.25 mg/L
- Activity (Staphylococcus aureus [33]): Dose-Dependent Effect
- Activity (Escherichia coli [34]): Active

From ChEMBL document CHEMBL5537115, “New broad-spectrum and potent antibacterial agents with dual-targeting mechanism: Promoting FtsZ polymerization and disrupting bacterial membranes” (Eur J Med Chem, 2024)
